Measured values published in ChEMBL document CHEMBL3507680, “University of Dundee, Gates Library screen for HepG2 cell viability”.

Assay: Human HepG2 cell viability assay in 384 well format
Assay type: toxicity, cell-based
Set-up: dose 125 nL, time 70.5 hour; concentration not given beside the values
Conditions: HepG2 cells, read-out: Inhibition

Row | SMILES | cytotoxicity at 70.5 h [%]
1 | CCCN1CCC(Cc2noc(-c3cccnc3OC)n2)CC1 | 2.25
2 | Fc1cc(Oc2ccc(C(F)(F)F)cn2)cc(F)c1CN1CCCC1 | -4.12
3 | CC1CC2(CCN(C(=O)c3csnn3)CC2)c2ccccc21 (stereo not given) | 0.655
4 | CCC(C)NC(=O)NCc1cc2n(n1)CCCN(C1CCCCC1)C2 (stereo not given) | 4.95
5 | O=S(=O)(NCCc1ccccc1F)N1CCOCC1 | -3.51
6 | CCN(C(=O)CN1CCCC1c1cc(C)no1)c1ccccc1C (stereo not given) | -6.07
7 | CCN(CC)C(=O)CCc1nc(-c2cnn3c(C)cc(C)nc23)no1 | -121
8 | COc1cccc(OCC2CCCN(C(=O)c3ncc(F)cc3F)C2)c1 (stereo not given) | 1.3
9 | CC(C)C(=O)NCc1ccc(N2CCCC2)nc1 | -3.37
10 | Cc1ccc(OC2(C(=O)O)CCN(C(=O)CCc3ccco3)CC2)cn1 | -0.99
11 | Cc1noc(C(C)C)c1C(=O)NCc1cccnc1 | -16.6
12 | Cc1nc(-c2ccco2)ccc1C(=O)NCCN1CCN(C)CC1 | -114
13 | COc1ccc(-n2nc(C(C)C)nc2Cn2cncn2)cc1 | -8.35
14 | COc1cccc([C@H]2CN(C(=O)c3scc4c3CCCC4)C[C@@H]2N)c1 | -12
15 | O=C(CN1CCS(=O)(=O)CC1)NCc1cccc(Br)c1 | -2.1
16 | CCCc1cc(C(=O)NC(COC)c2ccnn2C)no1 (stereo not given) | 14.9
17 | COc1ccc(F)cc1C(=O)N(C)[C@@H]1CC[C@@H](O)[C@@H]1O | -9.84
18 | Cc1ccc(S(=O)(=O)N2CC[C@@H]3C[C@H](NC(=O)c4[nH]ncc4Br)[C@@H]32)cc1 | -5.6
19 | Cc1ccc(C(=O)NCc2ccnc(N3CCN(C)CC3)c2)cn1 | -10
20 | NC(=O)CN1CC2(CCC1=O)CCN(Cc1ccccc1F)CC2 | -5.65
21 | Cc1ccc(CC(=O)N2CCCN(Cc3nccn3C)CC2)cn1 | -1.57
22 | COc1cccc(C(C)Nc2ncnc3c2NC(=O)CN3)c1 (stereo not given) | 11
23 | Cc1nc(CN2CCN(c3ncnc4ccccc34)CC2)no1 | 4.67

Row | SMILES | cytotoxicity at 70.5 h [%]
24 | Cc1cc(CN(Cc2ccccc2)CC(O)c2cccs2)on1 (stereo not given) | 8.6
25 | Cc1nc(C2CCCN2CCC(=O)N2CCc3ccccc32)no1 (stereo not given) | 4.14
26 | CC(Cn1cccn1)NC(=O)NCCN1CCCCCC1=O (stereo not given) | 2.55
27 | COc1cccc(-n2nnc(C(=O)N3CCOC(C)C3)c2C)c1 (stereo not given) | -1.7
28 | COc1ccccc1CN(CC1CCCO1)C(=O)c1ccc(F)cn1 (stereo not given) | -9.98
29 | CN(C)C(=O)N1CCCn2nc(CNC(=O)CCc3ccsc3)cc2C1 | -9.25
30 | COCc1ccc(OC)c(CNC2CCCNC2=O)c1 (stereo not given) | -8.49
31 | CC(C#N)CN(C)Cc1nc2c(cnn2C)c(=O)[nH]1 (stereo not given) | -7.12
32 | O=C(C1CCOC1)N1CCC2(CC1)COC2 (stereo not given) | -7.79
33 | CCCS(=O)(=O)N1Cc2nccn2CC(Cn2cccn2)C1 (stereo not given) | -2.32
34 | CCc1ccccc1OCCN(C)C(=O)CCN1CCCO1 | -3.75
35 | Cc1nc(C)c(S(=O)(=O)NC(=O)c2ccsc2)s1 | -7
36 | COc1ccc(CN(C)[C@@H]2CN(C(=O)c3cncs3)C[C@H]2O)cc1 | 0.0164
37 | CCCN1CCC(CC(=O)N(C)C(C)c2cncs2)CC1 (stereo not given) | -16.1
38 | Cc1ccc(CC(=O)N2CCCC(c3ccn[nH]3)C2)cn1 (stereo not given) | 0.114
39 | CNC(=O)c1cn[nH]c1C1CCN(Cc2cccc(C)c2OC)C1 (stereo not given) | -3.82
40 | C[C@@H]1CN(c2nc(O)cc(Cc3ccccc3F)n2)C[C@H](C)O1 | 19.5
41 | Cc1ccc(NC(=O)CN2CCC(OCC3CCCO3)CC2)c(C)c1 (stereo not given) | 5.15
42 | Cc1nn2c(nc1=O)-c1ccccc1NC2C(=O)O (stereo not given) | -9.44
43 | CS(=O)(=O)N1CCC(C(=O)N2CCC(Cn3cccn3)CC2)CC1 | -12.3
44 | CN1CCN(C(=O)c2cc3sccc3n2Cc2ccc(Cl)cc2)CC1 | -5.06
45 | COc1cc(C2CC(=O)Oc3cc(C)[nH]c(=O)c32)ccc1O (stereo not given) | -18.3
46 | CC(C)n1ncc2c1NC(=O)CC21C(=O)Nc2c(Br)cc(Cl)cc21 (stereo not given) | -14.8

Row | SMILES | cytotoxicity at 70.5 h [%]
47 | CC(C)N1CCC2(CC1)CC(CC(N)=O)c1ccc(F)cc12 (stereo not given) | -5.38
48 | COCC1CC2(CCN(Cc3cccnc3)CC2)CN1c1ncccn1 (stereo not given) | -0.169
49 | CS(=O)(=O)N1CCC2(CCCN(c3ncc(F)cn3)C2)C1 (stereo not given) | -7.4
50 | Cn1cc(CN(C(=O)c2ccc(O)c(Cl)c2)C2CC2)cn1 | -14.8
51 | Cc1nc(C)n(CC(=O)N2CCCC(c3nc(C)n4c(C)csc34)C2)n1 (stereo not given) | 0.595
52 | CC(NCc1c(C(C)C)nn(C)c1N1CCOCC1)C(=O)N(C)C (stereo not given) | 23
53 | CN(C)c1ncccc1CNC(=O)NCCN(C)C1CCCC1 | -0.0535
54 | CC(C)(C)OC(=O)N1CCCN(c2nnc(Br)s2)CC1 | -4.55
55 | Cc1ccc(N2CCCN(C(=O)c3cc(CC(C)C)n[nH]3)CC2)nn1 | 12.9
56 | CNC(=O)CCNC(=O)CCc1c(C)nc2cc(O)nn2c1C | -4.97
57 | O=C(c1cocn1)N1CCC[C@]2(C[C@@H](Oc3ncccc3F)CO2)C1 | -5.09
58 | CC(CC(=O)N1CCN(c2cnccn2)CC1)c1ccc(F)cc1 (stereo not given) | 0.499
59 | CCCc1cc(C(=O)NCCn2nc3ccccn3c2=O)[nH]n1 | -9.65
60 | CC(=O)c1sc(C(NC(=O)c2ccccc2)C2CC2)nc1C (stereo not given) | 8.83
61 | Cc1ccc(N2Cc3nc(=O)[nH]n3C2=O)cc1 | 6.49
62 | CN1CCN(Cc2ccc(Cl)cc2)CC1C(=O)O (stereo not given) | -6.51
63 | O=C(c1cc(Cl)c(Br)[nH]1)N1CCN(Cc2ccco2)CC1 | -6.08
64 | CCN(CC)CCCN1CCC(NC(=O)OC(C)(C)C)CC1 | -4.36
65 | C=C(C)COc1ccc(C(CC(=O)OC)c2oc(C)cc(=O)c2O)cc1 (stereo not given) | -0.596
66 | O=C(NS(=O)(=O)c1cccc(F)c1)c1ccccc1F | 13.1
67 | Cc1nc(N)cc(C2CN(C(=O)c3ccn(C)n3)CCO2)n1 (stereo not given) | -11.7
68 | Cc1cc(CNC(=O)c2cccs2)ccc1S(C)(=O)=O | -3.96
69 | CN(c1ccncn1)C1CC2(CCN(C(=O)c3cncs3)C2)C1 (stereo not given) | -2.06

Row | SMILES | cytotoxicity at 70.5 h [%]
70 | Cc1nccn1-c1ccc(=O)n(CCNC(=O)c2ccncc2)n1 | -7.2
71 | O=c1c2ccccc2nc2n1C(CSc1ccc(Br)cc1)CN2 (stereo not given) | 0.264
72 | CC1CN(C(=O)NCCNc2cnccn2)CCO1 (stereo not given) | 25.6
73 | CCN(CC1CCOC1)C(=O)c1ccccc1NS(=O)(=O)CC (stereo not given) | -3.45
74 | COCCNC(=O)Cn1cc(NC(=O)c2ccc(C(C)(C)C)cc2)cn1 | 33.3
75 | CSc1cccc(CNC(=O)[C@H]2CNC[C@@H](C(=O)N3CCOCC3)C2)c1 | -4.8
76 | N#Cc1c(F)cccc1Nc1cnn(CC(O)CN2CCOCC2)c1 (stereo not given) | -102
77 | CN(C)C(C(=O)NCC(F)(F)F)c1cccc(F)c1 (stereo not given) | -2.03
78 | CCCS(=O)(=O)N1CCc2c(COCC)cncc2C1 | -3.03
79 | CNCc1cc(F)ccc1Oc1ccc(F)cc1F | -0.802
80 | COc1cccc(N2CCN(Cc3ncc[nH]3)CC2=O)c1 | -10.6
81 | Cc1ccc(C)c(CN2CCOC(c3noc(C)n3)C2)c1 (stereo not given) | -4.49
82 | CN1C(=O)C2(CCN(Cc3nccn3C)CC2)c2ccccc21 | -4.36
83 | CCCS(=O)(=O)NCC1CCOc2ccccc2C1 (stereo not given) | -1.69
84 | CN(C)C(=O)COc1ccccc1CNC1CCc2ncnn2C1 (stereo not given) | -6.71
85 | O=C(CCC1CCN(C2CSCCSC2)CC1)NCC1CCCO1 (stereo not given) | -7.42
86 | Cn1cnnc1C1CCCN1C(=O)Nc1cccc(OC(F)F)c1 (stereo not given) | -1.48
87 | CCc1ccc(CNC(=O)Nc2cc(C)on2)s1 | -9.95
88 | Cn1cc(CN2C[C@@H]3COC[C@@H](C(=O)N4CCCCO4)[C@@H]3C2)cn1 | -1.2
89 | O=C(CCc1nccs1)N1CCN(c2ncccn2)CC1 | -1.61
90 | c1cncc(COCC2CN(Cc3cccnc3)Cc3ccnn3C2)c1 (stereo not given) | -9.95
91 | Cc1n[nH]c(C2CN(C(=O)c3coc(Br)c3)CCO2)n1 (stereo not given) | -10.2
92 | Cc1csc(N(C)C(=O)C2CC(=O)N(c3ccccc3Cl)C2)n1 (stereo not given) | 4.48

Row | SMILES | cytotoxicity at 70.5 h [%]
93 | COc1ncccc1NC(=O)C1CC1 | -1.48
94 | Cc1nnc(CN(CCc2ccccc2)C2CCN(C)CC2)s1 | -13.6
95 | NS(=O)(=O)c1cnn(CC(=O)Nc2c(Cl)cccc2Cl)c1 | -5.76
96 | COc1ccc(-c2n[nH]cc2CN(C)Cc2nnc(C)o2)c(F)c1 | 1.72
97 | Cc1cc(C(=O)N2CCCC2c2noc(C(C)C)n2)c(C)o1 (stereo not given) | -3.94
98 | CCCN1CCCC1c1ccc(C(=O)N2CCOCC2)s1 (stereo not given) | 0.549
99 | CCOc1ccc(C(=O)n2cccn2)cc1 | -4.2
100 | O=C(C1CC1)N1CC2(CCN(CC3CC3)CC2)c2cc(F)ccc21 | 25.9
101 | CCC(=O)c1ccccc1NN1c2ccccc2C(=O)C1(C)OC (stereo not given) | 4.64
102 | COC(C)(C)CC(C)NCc1nncn1C1CCCCC1 (stereo not given) | -7.83
103 | COc1cccc(N2C(=O)CC3(CCCNC3)C2=O)c1 (stereo not given) | -5.35
104 | CC(C)(C)c1n[nH]c(C2CN(C(=O)CCc3cscn3)CCO2)n1 (stereo not given) | -21.1
105 | COCCN1C[C@H]2CCN(c3ncccn3)CC[C@H]2S1(=O)=O | -3.17
106 | CN1CCN(C(=O)c2cccc(OCc3cscn3)c2)CC1 | 4.86
107 | CN1CCN(C(=O)C2CCN(c3cccnn3)C2)CC1 (stereo not given) | -6.3
108 | CC(=O)N(Cc1ncc(C)o1)C1CCN(Cc2cnc(C)s2)C1 (stereo not given) | -6.82
109 | COC[C@@H]1CC[C@H]2[C@H](CCN2S(=O)(=O)c2ccc(F)cc2)O1 | -28.6
110 | Cc1ccc(CN2CCCC23Cc2ccccc2CNC3=O)cc1 (stereo not given) | 21.9
111 | CC(Cc1ccco1)NC(=O)C1=NN(c2ccccc2)C(=O)CC1 (stereo not given) | 16.9
112 | Cc1ncc(S(C)(=O)=O)c(C2CCCNC2)n1 (stereo not given) | 2.69
113 | CNC[C@H]1CC[C@H](c2cc(CN(C)S(=O)(=O)N(C)C)n(C)n2)CC1 | -3.44
114 | CN1CCN(C(=O)[C@H]2C[C@H]3[C@H](CCN3Cc3nccs3)O2)CC1 | -10.8
115 | CCOCCN1CCN(CC(=O)N2CCCC2)CC1CC (stereo not given) | -4.43
